Results on 26 compounds are retold here after patent US20240043427A1 (Gilead Sciences, Inc., priority 2020, published 2024).

Each structure is given as a SMILES string. Bounds are passed on as bounds.

The target in assay [1] is T1, CD73 (Homo sapiens (Human), UniProt P21589). It counts as biochemical. To be noted: 1 mM NaH2PO4 in enzyme buffer, CD73 0.3 nM, AMP 15 uM.
For assay [2], the target named is T1, CD73. The experiment in a line: MDA-MB-231 Cell Based CD73 Activity Assay (DMEM). To be noted: MDA-MB-231-GFP cells, DMEM medium with 10% human plasma, 200 uM AMP.

T1 sequence (P21589 27-574): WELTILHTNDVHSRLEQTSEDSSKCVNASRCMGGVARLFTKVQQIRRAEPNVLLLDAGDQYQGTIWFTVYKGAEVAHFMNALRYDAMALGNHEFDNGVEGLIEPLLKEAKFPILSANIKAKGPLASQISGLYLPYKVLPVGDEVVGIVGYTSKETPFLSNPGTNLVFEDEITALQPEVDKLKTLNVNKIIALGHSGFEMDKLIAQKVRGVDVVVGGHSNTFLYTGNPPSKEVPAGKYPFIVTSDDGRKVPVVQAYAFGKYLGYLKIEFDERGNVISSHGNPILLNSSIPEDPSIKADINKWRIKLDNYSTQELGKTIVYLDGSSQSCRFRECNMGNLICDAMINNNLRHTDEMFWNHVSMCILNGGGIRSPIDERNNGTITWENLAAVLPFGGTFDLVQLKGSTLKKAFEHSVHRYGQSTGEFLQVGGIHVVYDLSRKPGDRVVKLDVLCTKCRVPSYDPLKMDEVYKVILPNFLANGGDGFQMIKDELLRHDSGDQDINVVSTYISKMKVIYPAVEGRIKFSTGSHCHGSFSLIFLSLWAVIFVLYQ

In general, IC50 refers to the concentration that inhibits the measured activity by half. A lower IC50 goes with higher potency. One may read the EC50 as the concentration that produces a half-maximal response. Low values mean a more potent agent, high ones a less potent agent. Take `O=c1[nH]cc(-c2cc(N3CC(F)(F)C4(CC4)C3)c3ncnn3n2)c(=O)[nH]1` [Example 84, 5-(8-(7,7-difluoro-5-azaspiro[2.4]heptan-5-yl)-[1,2,4]triazolo[1,5-b]pyridazin-6-yl)pyrimidine-2,4(1H,3H)-dione]: at CD73 [1], the concentration for half-maximal inhibition (IC50) amounted to 1.1 nM. The EC50 on CD73 [2] amounted to 6.56 nM.
The matching figures for `CC(C)NC(=O)O[C@H]1CN(c2cc(-c3c[nH]c(=O)[nH]c3=O)nn3ccnc23)CC1(F)F` [Example 533, (S)-1-(6-(2,4-dioxo-1,2,3,4-tetrahydropyrimidin-5-yl)imidazo[1,2-b]pyridazin-8-yl)-4,4-difluoropyrrolidin-3-yl isopropylcarbamate]: 0.78 nM and 0.17 nM.
In the case of `O=C(Nc1ccccc1F)O[C@H]1CN(c2cc(-c3c[nH]c(=O)[nH]c3=O)nn3ccnc23)CC1(F)F` [Example 241, (S)-1-(6-(2,4-dioxo-1,2,3,4-tetrahydropyrimidin-5-yl)imidazo[1,2-b]pyridazin-8-yl)-4,4-difluoropyrrolidin-3-yl (2-fluorophenyl)carbamate], the IC50 on CD73 [1] is 2.13 nM. Further, the concentration for a half-maximal effect (EC50) at CD73 [2] came to 1.41 nM.
In the case of `O=c1[nH]cc(-c2cc([C@H]3C[C@@H]3c3ccc4nc(C(F)(F)F)n(CC(F)(F)F)c4c3)c3nccn3n2)c(=O)[nH]1` [Example 620, 5-(8-((1S,2S)-2-(1-(2,2,2-trifluoroethyl)-2-(trifluoromethyl)-1H-benzo[d]imidazol-6-yl)cyclopropyl)imidazo[1,2-b]pyridazin-6-yl)pyrimidine-2,4(1H,3H)-dione], the IC50 at CD73 [1] was 1.22 nM. This compound also displayed an EC50 on CD73 [2] of 0.07 nM.
`CC(C)(C)CNc1cc(-c2c[nH]c(=O)[nH]c2=O)nn2ccnc12` [Example 668, 5-(8-(neopentylamino)imidazo[1,2-b]pyridazin-6-yl)pyrimidine-2,4(1H,3H)-dione] showed an IC50 against CD73 [1] above 250 nM. The same compound gave a 50% effective concentration (EC50) at CD73 [2] of 857 nM.
Compound `O=C(NC1CN(c2cc(-c3c[nH]c(=O)[nH]c3=O)nn3ccnc23)CC1(F)F)OCC1CC1` (stereo not shown) [Example 207, cyclopropylmethyl N-[1-[6-(2,4-dioxo-1H-pyrimidin-5-yl)imidazo[1,2-b]pyridazin-8-yl]-4,4-difluoro-pyrrolidin-3-yl]carbamate] had an IC50 on CD73 [1] of 6.05 nM. Besides, the EC50 at CD73 [2] came out at 20.3 nM.
In the case of `O=c1[nH]cc(-c2cc([C@H]3C[C@@H]3c3ccc(Cl)cn3)c3nccn3n2)c(=O)[nH]1` [Example 585, 5-(8-((1S,2S)-2-(5-chloropyridin-2-yl)cyclopropyl)imidazo[1,2-b]pyridazin-6-yl)pyrimidine-2,4(1H,3H)-dione], at CD73 [1], 0.69 nM corresponded to half-maximal inhibition (IC50). This compound returned a concentration giving a half-maximal response (EC50) at CD73 [2] of 1.9 nM.
In the case of `O=c1[nH]cc(-c2cc(N3CC(F)(F)C(F)(F)C3)c3ncc(F)n3n2)c(=O)[nH]1` [Example 351, 5-(3-fluoro-8-(3,3,4,4-tetrafluoropyrrolidin-1-yl)imidazo[1,2-b]pyridazin-6-yl)pyrimidine-2,4(1H,3H)-dione], the midpoint of inhibition at CD73 [1], the IC50, lay at 10.6 nM. The compound also came in with an EC50 on CD73 [2] of 56.4 nM.
Consider `C[C@H](COc1cc(-c2c[nH]c(=O)[nH]c2=O)nn2ccnc12)c1ccccc1` [Example 691, (S)-5-(8-(2-phenylpropoxy)imidazo[1,2-b]pyridazin-6-yl)pyrimidine-2,4(1H,3H)-dione], for which the midpoint of inhibition at CD73 [1], the IC50, lay at 43.3 nM. At CD73 [2], this compound had an EC50 of 349 nM.
The matching figures for `O=c1[nH]cc(-c2cc(NCC(F)F)c3nccn3n2)c(=O)[nH]1` [Example 670, 5-(8-((2,2-difluoroethyl)amino)imidazo[1,2-b]pyridazin-6-yl)pyrimidine-2,4(1H,3H)-dione]: 154 nM and 573 nM.
On CD73 [1], `O=c1[nH]cc(-c2cc(NC3CCCC3)c3nccn3n2)c(=O)[nH]1` [Example 226, 5-(8-(cyclopentylamino)imidazo[1,2-b]pyridazin-6-yl)pyrimidine-2,4(1H,3H)-dione] gave an IC50 of 121 nM. Further, the EC50 at CD73 [2] was found to be 410 nM.
Compound `N#Cc1ccc(O[C@H]2CN(c3cc(-c4c[nH]c(=O)[nH]c4=O)nn4ccnc34)CC2(F)F)cc1` [Example 237, (S)-4-((1-(6-(2,4-dioxo-1,2,3,4-tetrahydropyrimidin-5-yl)imidazo[1,2-b]pyridazin-8-yl)-4,4-difluoropyrrolidin-3-yl)oxy)benzonitrile] displayed an IC50 against CD73 [1] of 0.7 nM. In addition, at CD73 [2], the EC50 was 1.1 nM.
On CD73 [1], `C#CCC1CCN(c2cc(-c3c[nH]c(=O)[nH]c3=O)nn3ccnc23)C1` (stereo not shown) [Example 593, 5-(8-(3-(prop-2-yn-1-yl)pyrrolidin-1-yl)imidazo[1,2-b]pyridazin-6-yl)pyrimidine-2,4(1H,3H)-dione] displayed an IC50 of 7.24 nM. Besides, it took 33 nM to reach a half-maximal effect at CD73 [2] (EC50).
Turning to `COC[C@H](C)NC(=O)O[C@H]1CN(c2cc(-c3c[nH]c(=O)[nH]c3=O)nn3ccnc23)CC1(F)F` [Example 549, (S)-1-(6-(2,4-dioxo-1,2,3,4-tetrahydropyrimidin-5-yl)imidazo[1,2-b]pyridazin-8-yl)-4,4-difluoropyrrolidin-3-yl ((S)-1-methoxypropan-2-yl)carbamate], on CD73 [1], half-maximal inhibition (IC50) was put at 0.99 nM. This compound gave an EC50 at CD73 [2] of 0.28 nM.
For `O=c1[nH]cc(-c2cc(NCCc3c[nH]c4ccc(Cl)cc34)c3nccn3n2)c(=O)[nH]1` [Example 495, 5-(8-((2-(5-chloro-1H-indol-3-yl)ethyl)amino)imidazo[1,2-b]pyridazin-6-yl)pyrimidine-2,4(1H,3H)-dione] the same measures were above 250 nM and 748 nM.
`CC1(C)CN(c2cc(-c3c[nH]c(=O)[nH]c3=O)nn3c(F)cnc23)CC1(F)F` [Example 81, 5-[8-(3,3-difluoro-4,4-dimethyl-pyrrolidin-1-yl)-3-fluoro-imidazo[1,2-b]pyridazin-6-yl]-1H-pyrimidine-2,4-dione] had an IC50 at CD73 [1] of 1.93 nM. At CD73 [2], a half-maximal effect (EC50) was put at 8.22 nM.
For `O=C(OCC(F)(F)F)O[C@@H]1CN(c2cc(-c3c[nH]c(=O)[nH]c3=O)nn3ccnc23)CC1(F)F` [Example 543, (R)-1-(6-(2,4-dioxo-1,2,3,4-tetrahydropyrimidin-5-yl)imidazo[1,2-b]pyridazin-8-yl)-4,4-difluoropyrrolidin-3-yl (2,2,2-trifluoroethyl) carbonate], inhibition against CD73 [1] was half-maximal at 1.43 nM (IC50). Also, on CD73 [2], the EC50 was determined as 17.4 nM.
For `C[C@@H]1CN(c2cc(-c3c[nH]c(=O)[nH]c3=O)nn3c(Cl)cnc23)CC1(F)F` [Example 521, (R)-5-(3-chloro-8-(3,3-difluoro-4-methylpyrrolidin-1-yl)imidazo[1,2-b]pyridazin-6-yl)pyrimidine-2,4(1H,3H)-dione] the same measures were 33.3 nM and 223 nM.
`Cn1ccc(-c2cc(-c3c[nH]c(=O)[nH]c3=O)nn3ccnc23)n1` [Example 512, 5-(8-(1-methyl-1H-pyrazol-3-yl)imidazo[1,2-b]pyridazin-6-yl)pyrimidine-2,4(1H,3H)-dione] yielded a half-inhibitory concentration (IC50) against CD73 [1] above 250 nM. For the same compound, a half-maximal effect on CD73 [2] (EC50) was put at 1140 nM.
Consider `O=c1[nH]cc(-c2cc(N3C[C@H](Oc4ccc(OC(F)F)cn4)C(F)(F)C3)c3nccn3n2)c(=O)[nH]1` [Example 333, (S)-5-(8-(4-((5-(difluoromethoxy)pyridin-2-yl)oxy)-3,3-difluoropyrrolidin-1-yl)imidazo[1,2-b]pyridazin-6-yl)pyrimidine-2,4(1H,3H)-dione], for which inhibition at CD73 [1] was half-maximal at 0.89 nM (IC50). The same compound showed an EC50 on CD73 [2] of 1.91 nM.
For `O=C(OC1CN(c2cc(-c3c[nH]c(=O)[nH]c3=O)nn3ccnc23)CC1(F)F)N1CC(F)(F)C1` (stereo not shown) [Example 536, 1-(6-(2,4-dioxo-1,2,3,4-tetrahydropyrimidin-5-yl)imidazo[1,2-b]pyridazin-8-yl)-4,4-difluoropyrrolidin-3-yl 3,3-difluoroazetidine-1-carboxylate] the same measures were 3.83 nM and 5.05 nM.
`O=c1[nH]cc(-c2cc(N3CC(F)(COc4ccc(C(F)(F)F)cn4)C3)c3nccn3n2)c(=O)[nH]1` [Example 435, 5-(8-(3-fluoro-3-(((5-(trifluoromethyl)pyridin-2-yl)oxy)methyl)azetidin-1-yl)imidazo[1,2-b]pyridazin-6-yl)pyrimidine-2,4(1H,3H)-dione]: at CD73 [1], the IC50 came to 6 nM. In addition, it took 66 nM to reach a half-maximal effect on CD73 [2] (EC50).
For `O=c1[nH]cc(-c2cc(N3CC(OC(F)F)C4(CC4)C3)c3nccn3n2)c(=O)[nH]1` (stereo not shown) [Example 343, 5-[8-[7-(difluoromethoxy)-5-azaspiro[2.4]heptan-5-yl]imidazo[1,2-b]pyridazin-6-yl]-1H-pyrimidine-2,4-dione], the IC50 on CD73 [1] was 48.2 nM. Moreover, at CD73 [2], it took 129 nM to reach a half-maximal effect (EC50).
The compound `CC(C)n1ncc2ccc([C@H]3C[C@@H]3c3cc(-c4c[nH]c(=O)[nH]c4=O)nn4ccnc34)cc21` (racemic) [Example 119, 5-(8-((1S,2S)-2-(1-isopropyl-1H-indazol-6-yl)cyclopropyl)imidazo[1,2-b]pyridazin-6-yl)pyrimidine-2,4(1H,3H)-dione and 5-(8-((1R,2R)-2-(1-isopropyl-1H-indazol-6-yl)cyclopropyl)imidazo[1,2-b]pyridazin-6-yl)pyrimidine-2,4(1H,3H)-dione] came in with an IC50 at CD73 [1] of 0.56 nM. In addition, it took 1.09 nM to reach a half-maximal effect at CD73 [2] (EC50).
In turn, `O=c1[nH]cc(-c2cc(N3C[C@@H]4[C@H](C3)[C@H]4C(F)(F)F)c3nccn3n2)c(=O)[nH]1` [Example 352, 5-(8-((1R,5S,6r)-6-(trifluoromethyl)-3-azabicyclo[3.1.0]hexan-3-yl)imidazo[1,2-b]pyridazin-6-yl)pyrimidine-2,4(1H,3H)-dione] gave an IC50 against CD73 [1] above 250 nM. This compound also returned an EC50 on CD73 [2] of 1000 nM.
As to `O=c1[nH]cc(-c2cc(N3C[C@H](Oc4ccc(OC(F)(F)F)cn4)C(F)(F)C3)c3nccn3n2)c(=O)[nH]1` [Example 335, (S)-5-(8-(3,3-difluoro-4-((5-(trifluoromethoxy)pyridin-2-yl)oxy)pyrrolidin-1-yl)imidazo[1,2-b]pyridazin-6-yl)pyrimidine-2,4(1H,3H)-dione], at CD73 [1], the IC50 came to 2.8 nM. Also, the EC50 on CD73 [2] came out at 6.77 nM.
